From US20240158418A1 (C4 Therapeutics, Inc., priority 2021, published 2024)

Legend:
[1] = test system: BaF3 cells expressing EGFR L858R; experiment: Ba/F3 EGFR cell viability (CellTiter-Glo), L858R; assay type: cell-based; details: Mus musculus, read-out: CTGlo (GI50)
Text: (§1) RPMI 1640 media, cell culture flasks, and 384-well microplates were purchased from VWR (Radnor, PA, USA). Fetal bovine serum (FBS) was purchased from Life Technologies (Carlsbad, CA, USA) and CellTiter-Glo® was purchased from Promega (Madison, WI, USA). The Ba/F3 parental cell line was purchased from CrownBio (Santa Clara, CA). BaF3 cell lines ectopically expressing the EGFR mutations L858R, L858R-T790M, L858R-C797S, and L858R-T790M-C797S were purchased from CrownBio and EGFR mutations L858R-L718Q, L858R-T790M-L718Q, L858R-L792H, and L858R-T790M-L792H, were purchased from Signosis (Santa Clara, CA).
(§2) Cell viability was assessed based on the quantification of ATP using the CellTiter-Glo® assay (Promega, Madison, WI, USA). To determine the effect of compounds on cell viability, all Ba/F3 cell lines were plated at a cell density of 2000 cells/well in 384-well plates using RPMI 1640+10% FBS and treated with compounds of interest using a 10-point half-log dilution series in duplicate for 72 hours, with the highest dose set at […]. CellTiter-Glo® reagent was then added and luminescence signals were measured using an EnVision™ Multimode plate reader (Perkin Elmer, Santa Clara, CA). For data normalization, cells untreated with the test compounds at Time=72 hours were set to 100% (equivalent to maximal cell growth after 72 hours); cells untreated with the test compounds at Time=0 hours were set to 0% (equivalent to cytostasis); and media-only wells were set to −100% (equivalent to complete cytotoxicity). % Viability was determined by normalizing the signal with positive and DMSO treated negative controls on the same microtiter plate. The half-maximal inhibition of cell growth (GI50) is computed from where the fitted curve crosses 50% while the half-maximal lethal dose (LD50) is computed from where the fitted curve crosses −50%.

[2] = test system: BaF3 cells expressing EGFR L858R-C797S; experiment: Ba/F3 EGFR cell viability (CellTiter-Glo), L858R-C797S; assay type: cell-based; details: Mus musculus, read-out: CTGlo (GI50)
Text: as §1, §2

[3] = test system: BaF3 cells expressing wild-type EGFR; experiment: Ba/F3 EGFR cell viability (CellTiter-Glo), wild-type EGFR; assay type: cell-based; details: Mus musculus, Ba/F3 WT EGFR, read-out: CTGlo (GI50)
[4] = test system: BaF3 cells expressing EGFR L858R-L718Q; experiment: Ba/F3 EGFR cell viability (CellTiter-Glo), L858R-L718Q; assay type: cell-based; details: Mus musculus, read-out: CTGlo (GI50)
Text: as §1, §2

[5] = test system: BaF3 cells expressing EGFR L858R-T790M-L718Q; experiment: Ba/F3 EGFR cell viability (CellTiter-Glo), L858R-T790M-L718Q; assay type: cell-based; details: Mus musculus, read-out: CTGlo (GI50)
Text: as §1, §2

[6] = Tolerability / body weight change on oral dosing in tumor-bearing mice; assay type: in vivo
Protocol: (§3) Compound 1 was dosed at 20, 50, or 100 mg/kg/day and was formulated in PEG400 (20% v/v)+80% v/v SBECD (25% w/v) in ddH2O. […] Body weight and MTV were measured on a 2× weekly schedule. Statistical analysis was performed using a one-way ANOVA. Data are expressed as MTV±SEM.
as §3, with “1 and Compound 2 were” for “1 was”, “one-way ANOVA followed by Dunnett's multiple comparison test.” for “one-way ANOVA.”
2×10^5 luciferase-expressing NCI-H1975-luc tumor cells suspended in 2 μL RPMI-1640 media were injected into the right forebrain of female BALB/c nude mice. Tumor growth was monitored using imaging analysis. Mice were injected intraperitoneally with 15 mg/mL of D-luciferin and anesthetized with 1-2% isoflurane inhalation. 10 minutes post luciferin injection, mice were imaged using IVIS Lumina III (Perkin Elmer) and total bioluminescence signal (BLI, photons/s) was measured in a region of interest (ROI). BLI from ROI were quantified and used as an indicator of tumor burden. […] Body weight and MTV were measured on a 2× weekly schedule. Statistical analysis was calculated using the Mann-Whitney U test. Data are expressed as bioluminescent signal (photons/s). […]

SMILES | GI50 [1] [nM] | GI50 [2] [nM] | GI50 [3] [nM] | GI50 [4] [nM] | GI50 [5] [nM] | tolerability of oral dosing [6]
O=C1CC[C@H](Nc2ccc(N3CCC(O)(CC(=O)N4CC5(C4)CN(c4ccc(-c6cc(F)c7c(c6)C(=O)N(C(C(=O)Nc6nccs6)c6ncn8c6CCC8)C7)cc4)C5)CC3)c(F)c2)C(=O)N1 (stereo partly drawn) [Compound 1, 2-(6,7-dihydro-5H-pyrrolo[1,2-c]imidazol-1-yl)-2-[6-[4-[2-[2-[1-[4-[[(3S)-2,6-dioxo-3-piperidyl]amino]-2-fluoro-phenyl]-4-hydroxy-4-piperidyl]acetyl]-2,6-diazaspiro[3.3]heptan-6-yl]phenyl]-4-fluoro-1-oxo-isoindolin-2-yl]-N-thiazol-2-yl-acetamide] | 12 | 5 | 1620 | 24 | 44 | well tolerated
Cn1nc(N2CCC(=O)NC2=O)c2ccc([C@H]3CCN(CC(=O)N4CC5(C4)CN(c4ccc(-c6cc(F)c7c(c6)C(=O)N(C(C(=O)Nc6nccs6)c6ncn8c6CCC8)C7)cc4)C5)CC3(F)F)cc21 (stereo partly drawn) [Compound 2, 2-(6,7-dihydro-5H-pyrrolo[1,2-c]imidazol-1-yl)-2-[6-[4-[2-[2-[(4R)-4-[3-(2,4-dioxohexahydropyrimidin-1-yl)-1-methyl-indazol-6-yl]-3,3-difluoro-1-piperidyl]acetyl]-2,6-diazaspiro[3.3]heptan-6-yl]phenyl]-4-fluoro-1-oxo-isoindolin-2-yl]-N-thiazol-2-yl-acetamide] | 3 | 3 | 310 | 6 | 22 | well tolerated
